According to patent publication US4732977A, “Carbapenem antibiotics” (priority 1986, dated 1988):
Structures can show the parent of a compound that is named as a salt.

What was measured:
P. aeruginosa A-9843A [1] = assay: M.I.C., tube dilution; format: cell-based; settings: Pseudomonas aeruginosa, A9843A, overnight incubation at 37° C., Nutrient Broth
E. coli A15119 = assay: M.I.C., tube dilution; format: cell-based; settings: Escherichia coli, A15119, 10^-4 dil.
S. faecalis A20688 = assay: M.I.C., tube dilution; format: cell-based; settings: Enterococcus faecalis, A20688, overnight incubation at 37° C., Nutrient Broth; read-out: MIC
P. aeruginosa A-9843a [2] = assay: animal or person; format: in vivo, mice; settings: Pseudomonas aeruginosa, A9843A, im; mice, i.m. 0 and 2 h postinfection; challenge 5.5 × 10^4 organisms; * = historical data; read-out: PD50/Treatment
Protocol: (§1) The PD50 (dose in mg/kg required to give protection to 50% of the infected mice) is indicated.
with drugs 0 and 2 hours postinfection.
(§2) The PD50 (dose in mg/kg) required to give protection to 50% of the infected mice is indicated.

[3] = Urinary recovery after intramuscular administration to mice; format: in vivo; settings: mouse, urine, im, 20 mg/kg, 20 mg/kg i.m.
Text: | a single test; 4 mice per compound.

B. fragilis A22862 = assay: M.I.C., tube dilution; format: cell-based; settings: Bacteroides fragilis, overnight incubation at 37° C., Nutrient Broth
B. fragilis A22863 = assay: M.I.C., tube dilution; format: cell-based; settings: Bacteroides fragilis, overnight incubation at 37° C., Nutrient Broth
P. aeruginosa A-20599 = assay: Protective effect in intramuscular treatment of infected mice; format: in vivo; settings: Pseudomonas aeruginosa, A20599, im, i.m. 0 and 2 h postinfection, challenge 1.4 × 10^5 organisms, * = historical data, read-out: PD50/Treatment
H. influenzae A21518 = assay: M.I.C., tube dilution; format: cell-based; settings: Haemophilus influenzae, overnight incubation at 37° C., Nutrient Broth
[4] = Blood levels in mice after intramuscular administration;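 note: compounds dissolved in 0.1 M phosphate buffer at pH 7, data from one experiment using four mice for each compound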
Text: Compounds were solubilized in 0.1 M phosphate buffer pH 7.
a single test; 4 mice used per compound.
Compounds were solubilized in 0.1 M phosphate buffer, pH 7.
on a single test; 4 mice per compound.

S. faecalis A-20688 = assay: Protective effect in intramuscular treatment of infected mice; format: in vivo; settings: Enterococcus faecalis, A20688, im, i.m. 0 and 2 h postinfection, challenge 2.3 × 10^8 organisms, * = historical data, read-out: PD50/Treatment
in vivo = settings: mouse
P. aeruginosa A-20481 = assay: Protective effect in intramuscular treatment of infected mice; format: in vivo; settings: Pseudomonas aeruginosa, A20481, im, i.m. 0 and 2 h postinfection, challenge 5.4 × 10^4 organisms, * = historical data, read-out: PD50/Treatment
[5] = Toxicity after intracranial administration to mice; settings: mouse, in vivo
E. coli A20341-1 = assay: M.I.C., tube dilution; format: cell-based; settings: Escherichia coli, A203411; 10^-4; read-out: MIC
P. morganii A15153 = assay: M.I.C., tube dilution; format: cell-based; settings: Morganella morganii, A15153
E. coli A-15119 = assay: Protective effect in intramuscular treatment of infected mice; format: in vivo; settings: Escherichia coli, A15119, im, 3.5 h, read-out: PD50/Treatment
Protocol: as §1
with drugs 0 and 2 hours postinfection.
as §2

H. influenzae A-9833 = assay: M.I.C., tube dilution; format: cell-based; settings: Haemophilus influenzae, A9833; overnight incubation at 37° C., Nutrient Broth
S. aureus A-9537 = assay: M.I.C., tube dilution; format: cell-based; settings: Staphylococcus aureus
B. fragilis A22053 = assay: M.I.C., tube dilution; format: cell-based; settings: Bacteroides fragilis, overnight incubation at 37° C., Nutrient Broth
S. aureus A-9606 = assay: Protective effect in intramuscular treatment of infected mice; format: in vivo; settings: Staphylococcus aureus, A9606, im, read-out: PD50/treatment
Protocol: as §1
with drugs 0 and 2 hours postinfection.
as §2

P. mirabilis A-9900 = assay: as above; format: in vivo; settings: Proteus mirabilis, A9900, im, read-out: PD50/Treatment
Protocol: as §1
with drugs 0 and 2 hours postinfection.
as §2

P. aeruginosa A21213 = assay: M.I.C., tube dilution; format: cell-based; settings: Pseudomonas aeruginosa, A21213, overnight incubation at 37° C., Nutrient Broth; read-out: MIC
P. vulgaris A21559 = assay: M.I.C., tube dilution; format: cell-based; settings: Proteus vulgaris, A21559, overnight incubation at 37° C., Nutrient Broth; read-out: MIC

Structure (SMILES): C[C@@H](O)[C@H]1C(=O)N2C(C(=O)[O-])=C(SCc3cc[n+](C)cc3)C[C@H]12 [Example 1, 1-Methyl-4-[2-carboxy-6α-[1(R)-hydroxyethyl]-7-oxo-1-azabicyclo[3.2.0]hept-2-en-3-thiomethyl]pyridinium hydroxide inner salt]
- MIC (P. aeruginosa A-9843A [1]): 4 µg/mL
- MIC (E. coli A15119): 0.06 µg/mL
- MIC (S. faecalis A20688): 0.5 µg/mL
- ED50 (P. aeruginosa A-9843a [2]): 0.3 mg/kg
- dose excreted at 3 h ([3]; 0-3 hours): 26.1%
- dose excreted at 24 h ([3]; 0-24 hours): 26.7 ± 6.7%
- dose excreted at 6 h ([3]; 3-6 hours): 0.5%
- dose excreted at 24 h ([3]; 6-24 hours): 0.1%
- MIC (B. fragilis A22862): 0.03 µg/mL
- MIC (B. fragilis A22863): 0.03 µg/mL
- ED50 (P. aeruginosa A-20599): 0.7 mg/kg
- MIC (H. influenzae A21518): 16 µg/mL
- AUC ([4]; mice, 20 mg/kg i.m. (table 9)): 6300 ng·h/mL
- T1/2 ([4]; mice, 20 mg/kg i.m. (table 9)): 10 min
- AUC ([4]; mouse, blood, im, 20 mg/kg): 6300 ng·h/mL
- Cmax ([4]; mouse, blood, im, 20 mg/kg): 14000 ng/mL
- half-life ([4]; mouse, in vivo, im, 20 mg/kg): 10 min
- ED50 (S. faecalis A-20688): 3.3 mg/kg
- NOAEL (in vivo): 5 mg/kg
- ED50 (P. aeruginosa A-20481): 0.63 mg/kg
- LD50 [5]: 14 mg/kg
- MIC (E. coli A20341-1): 0.03 µg/mL
- MIC (P. morganii A15153): 0.13 µg/mL
- ED50 (E. coli A-15119): 0.6 mg/kg
- MIC (H. influenzae A-9833): 16 µg/mL
- MIC (S. aureus A-9537; A9537, overnight incubation at 37° C., Nutrient Broth): 0.13 µg/mL
- MIC (S. aureus A-9537; A9537, +50% serum): 0.03 µg/mL
- MIC (B. fragilis A22053): 0.03 µg/mL
- ED50 (S. aureus A-9606): 0.09 mg/kg
- ED50 (P. mirabilis A-9900): 3.3 mg/kg
- MIC (P. aeruginosa A21213): 1 µg/mL
- MIC (P. vulgaris A21559): 0.13 µg/mL
